In patent US8846933B2, “N-link hydroxamic acid derivatives useful as antibacterial agents” (Pfizer Inc., priority 2009, dated 2014):

How the values were obtained:
[1] = tested on: Escherichia coli EC-1: VOGEL, mouse virulent; assay: MIC determination (CLSI), strain EC-1; type: cell-based; conditions: strain EC-1; unit assumed
Procedure, shortened: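 The mouse-virulent VOGEL isolate of E. coli, EC-1, served as test organism. Minimum inhibitory concentration was measured by CLSI dilution methodology (M7-A7; M100-S18 standards).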

[2] = tested on: Pseudomonas aeruginosa UI-18: Wild-type (PA-7); assay: MIC determination (CLSI), strain PA-7; type: cell-based; conditions: strain PA-7; unit assumed
Procedure, shortened: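 MIC determined by broth dilution per CLSI M7-A7 guidelines with M100-S18 interpretive standards. Test organism: wild-type Pseudomonas aeruginosa UI-18, designated PA-7.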

Compound | EC-1 (MIC) [1] | PA-7 (MIC) [2]
Cc1cc(-c2ccn(CCC(C)(C(=O)NO)S(C)(=O)=O)c(=O)c2)ccc1F (stereo not shown) [Example 193, 4-[4-(4-fluoro-3-methylphenyl)-2-oxopyridin-1(2H)-yl]-N-hydroxy-2-methyl-2-(methylsulfonyl)butanamide] | 2 µg/mL | 2 µg/mL
Cn1c(C#N)ccc1-c1ccn(CCC(C)(C(=O)NO)S(C)(=O)=O)c(=O)c1 (stereo not shown) [Example 194, 4-[4-(5-cyano-1-methyl-1H-pyrrol-2-yl)-2-oxopyridin-1(2H)-yl]-N-hydroxy-2-methyl-2-(methylsulfonyl)butanamide] | > 64 µg/mL | > 64 µg/mL
COc1ccc(OC)c(-c2ccn(CCC(C)(C(=O)NO)S(C)(=O)=O)c(=O)c2)c1 (stereo not shown) [Example 195, 4-[4-(2,5-dimethoxyphenyl)-2-oxopyridin-1(2H)-yl]-N-hydroxy-2-methyl-2-(methylsulfonyl)butanamide] | > 64 µg/mL | > 64 µg/mL
CC(CCn1ccc(-c2cc(F)ccc2F)cc1=O)(C(=O)NO)S(C)(=O)=O (stereo not shown) [Example 196, 4-[4-(2,5-difluorophenyl)-2-oxopyridin-1(2H)-yl]-N-hydroxy-2-methyl-2-(methylsulfonyl)butanamide] | 8 µg/mL | 4 µg/mL
CC(CCn1ccc(-c2ccc(-c3ccccc3)c(F)c2)cc1=O)(C(=O)NO)S(C)(=O)=O (stereo not shown) [Example 197, 4-[4-(2-fluorobiphenyl-4-yl)-2-oxopyridin-1(2H)-yl]-N-hydroxy-2-methyl-2-(methylsulfonyl)butanamide] | 0.25 µg/mL | 2 µg/mL
CC(CCn1ccc(-c2ccc(C#N)cc2)cc1=O)(C(=O)NO)S(C)(=O)=O (stereo not shown) [Example 198, 4-[4-(4-cyanophenyl)-2-oxopyridin-1(2H)-yl]-N-hydroxy-2-methyl-2-(methylsulfonyl)butanamide] | 16 µg/mL | 8 µg/mL
CCCCc1ccc(-c2ccn(CCC(C)(C(=O)NO)S(C)(=O)=O)c(=O)c2)cc1 (stereo not shown) [Example 199, 4-[4-(4-butylphenyl)-2-oxopyridin-1(2H)-yl]-N-hydroxy-2-methyl-2-(methylsulfonyl)butanamide] | 0.125 µg/mL | 2 µg/mL
COc1ccc(-c2ccn(CCC(C)(C(=O)NO)S(C)(=O)=O)c(=O)c2)c(C)n1 (stereo not shown) [Example 200, N-hydroxy-4-(6-methoxy-2-methyl-2′-oxo-3,4′-bipyridin-1′(2′H)-yl)-2-methyl-2-(methylsulfonyl)butanamide] | 32 µg/mL | 16 µg/mL
Cc1c(-c2ccn(CCC(C)(C(=O)NO)S(C)(=O)=O)c(=O)c2)cnn1-c1ccccc1 (stereo not shown) [Example 203, N-hydroxy-2-methyl-4-[4-(5-methyl-1-phenyl-1H-pyrazol-4-yl)-2-oxopyridin-1(2H)-yl]-2-(methylsulfonyl)butanamide] | 64 µg/mL | > 64 µg/mL
CC(CCn1ccc(-c2cc(O)ccc2Cl)cc1=O)(C(=O)NO)S(C)(=O)=O (stereo not shown) [Example 204, 4-[4-(2-chloro-5-hydroxyphenyl)-2-oxopyridin-1(2H)-yl]-N-hydroxy-2-methyl-2-(methylsulfonyl)butanamide] | 64 µg/mL | > 64 µg/mL
CCOc1ncccc1-c1ccn(CCC(C)(C(=O)NO)S(C)(=O)=O)c(=O)c1 (stereo not shown) [Example 205, 4-(2-ethoxy-2′-oxo-3,4′-bipyridin-1′(2′H)-yl)-N-hydroxy-2-methyl-2-(methylsulfonyl)butanamide] | > 64 µg/mL | > 64 µg/mL
COc1cccc(-c2ccn(CCC(C)(C(=O)NO)S(C)(=O)=O)c(=O)c2)c1 (stereo not shown) [Example 206, N-hydroxy-4-[4-(3-methoxyphenyl)-2-oxopyridin-1(2H)-yl]-2-methyl-2-(methylsulfonyl)butanamide] | 4 µg/mL | 4 µg/mL
CC(CCn1ccc(-c2ccc(C#N)c(F)c2)cc1=O)(C(=O)NO)S(C)(=O)=O (stereo not shown) [Example 207, 4-[4-(4-cyano-3-fluorophenyl)-2-oxopyridin-1(2H)-yl]-N-hydroxy-2-methyl-2-(methylsulfonyl)butanamide] | 16 µg/mL | 16 µg/mL
COc1cc(-c2ccn(CCC(C)(C(=O)NO)S(C)(=O)=O)c(=O)c2)ccc1F (stereo not shown) [Example 208, 4-[4-(4-fluoro-3-methoxyphenyl)-2-oxopyridin-1(2H)-yl]-N-hydroxy-2-methyl-2-(methylsulfonyl)butanamide] | 32 µg/mL | 16 µg/mL
Cc1cc(-c2ccn(CCC(C)(C(=O)NO)S(C)(=O)=O)c(=O)c2)ccn1 (stereo not shown) [Example 209, N-hydroxy-2-methyl-4-(2′-methyl-2-oxo-4,4′-bipyridin-1(2H)-yl)-2-(methylsulfonyl)butanamide] | 64 µg/mL | 32 µg/mL
CC(CCn1ccc(-c2cccc(O)c2)cc1=O)(C(=O)NO)S(C)(=O)=O (stereo not shown) [Example 210, N-hydroxy-4-[4-(3-hydroxyphenyl)-2-oxopyridin-1(2H)-yl]-2-methyl-2-(methylsulfonyl)butanamide] | > 64 µg/mL | > 64 µg/mL

Compound | EC-1 (MIC) [1] | PA-7 (MIC) [2]
CC(C)(C)NC(=O)c1cc(-c2ccn(CCC(C)(C(=O)NO)S(C)(=O)=O)c(=O)c2)ccc1F (stereo not shown) [Example 211, N-tert-butyl-2-fluoro-5-{1-[4-(hydroxyamino)-3-methyl-3-(methylsulfonyl)-4-oxobutyl]-2-oxo-1,2-dihydropyridin-4-yl}benzamide] | 64 µg/mL | > 64 µg/mL
COc1cc(-c2ccn(CCC(C)(C(=O)NO)S(C)(=O)=O)c(=O)c2)cc(OC)c1OC (stereo not shown) [Example 212, N-hydroxy-2-methyl-2-(methylsulfonyl)-4-[2-oxo-4-(3,4,5-trimethoxyphenyl)pyridin-1(2H)-yl]butanamide] | > 64 µg/mL | > 64 µg/mL
CC(CCn1ccc(-c2ccccc2O)cc1=O)(C(=O)NO)S(C)(=O)=O (stereo not shown) [Example 213, N-hydroxy-4-[4-(2-hydroxyphenyl)-2-oxopyridin-1(2H)-yl]-2-methyl-2-(methylsulfonyl)butanamide] | > 64 µg/mL | > 64 µg/mL
CC(CCn1ccc(-c2ccc(F)c(Cl)c2)cc1=O)(C(=O)NO)S(C)(=O)=O (stereo not shown) [Example 214] | 1 µg/mL | 2 µg/mL
CC(CCn1ccc(-c2cccc3cnccc23)cc1=O)(C(=O)NO)S(C)(=O)=O (stereo not shown) [Example 215, N-hydroxy-4-(4-isoquinolin-5-yl-2-oxopyridin-1(2H)-yl)-2-methyl-2-(methylsulfonyl)butanamide] | > 64 µg/mL | 64 µg/mL
CC(CCn1ccc(-c2cc(Cl)cc(Cl)c2)cc1=O)(C(=O)NO)S(C)(=O)=O (stereo not shown) [Example 216, 4-[4-(3,5-dichlorophenyl)-2-oxopyridin-1(2H)-yl]-N-hydroxy-2-methyl-2-(methylsulfonyl)butanamide] | 4 µg/mL | 8 µg/mL
CCCCCc1ccc(-c2ccn(CCC(C)(C(=O)NO)S(C)(=O)=O)c(=O)c2)cc1 (stereo not shown) [Example 217, N-hydroxy-2-methyl-2-(methylsulfonyl)-4-[2-oxo-4-(4-pentylphenyl)pyridin-1(2H)-yl]butanamide] | < 0.06 µg/mL | 8 µg/mL
CC(CCn1ccc(-c2ccncc2)cc1=O)(C(=O)NO)S(C)(=O)=O (stereo not shown) [Example 218, N-hydroxy-2-methyl-2-(methylsulfonyl)-4-(2-oxo-4,4′-bipyridin-1(2H)-yl)butanamide] | > 64 µg/mL | 64 µg/mL
CC(CCn1ccc(-c2cccnc2)cc1=O)(C(=O)NO)S(C)(=O)=O (stereo not shown) [Example 219, N-hydroxy-2-methyl-2-(methylsulfonyl)-4-(2′-oxo-3,4′-bipyridin-1′(2′H)-yl)butanamide] | > 64 µg/mL | > 64 µg/mL
Cc1cc(-c2ccccc2)cc(=O)n1CCC(C)(C(=O)NO)S(C)(=O)=O (stereo not shown) [Example 220, N-hydroxy-2-methyl-4-(6-methyl-2-oxo-4-phenylpyridin-1(2H)-yl)-2-(methylsulfonyl)butanamide] | > 64 µg/mL | > 64 µg/mL
CC(CCn1ccc(-c2ccc(OCCCN3CCOCC3)c(Cl)c2)cc1=O)(C(=O)NO)S(C)(=O)=O (stereo not shown) [Example 221, 4-{4-[3-chloro-4-(3-morpholin-4-ylpropoxy)phenyl]-2-oxopyridin-1(2H)-yl}-N-hydroxy-2-methyl-2-(methylsulfonyl)butanamide] | 2 µg/mL | 8 µg/mL
Cc1cc(-c2ccn(CCC(C)(C(=O)NO)S(C)(=O)=O)c(=O)c2)ccc1OCCCN1CCOCC1 (stereo not shown) [Example 222, N-hydroxy-2-methyl-4-{4-[3-methyl-4-(3-morpholin-4-ylpropoxy)phenyl]-2-oxopyridin-1(2H)-yl}-2-(methylsulfonyl)butanamide] | 2 µg/mL | 8 µg/mL
CC(CCn1ccc(-c2ccc(OCCCN3CCOCC3)c(F)c2)cc1=O)(C(=O)NO)S(C)(=O)=O (stereo not shown) [Example 223, 4-{4-[3-fluoro-4-(3-morpholin-4-ylpropoxy)phenyl]-2-oxopyridin-1(2H)-yl}-N-hydroxy-2-methyl-2-(methylsulfonyl)butanamide] | 4 µg/mL | 8 µg/mL
CC(O)Cc1ccc(-c2ccn(CCC(C)(C(=O)NO)S(C)(=O)=O)c(=O)c2)cc1 (stereo not shown) [Example 224, N-hydroxy-4-{4-[4-(2-hydroxypropyl)phenyl]-2-oxopyridin-1(2H)-yl}-2-methyl-2-(methylsulfonyl)butanamide] | 32 µg/mL | 8 µg/mL
CC(CCn1ccc(-c2ccc(OCCCN3CCOCC3)cc2Cl)cc1=O)(C(=O)NO)S(C)(=O)=O (stereo not shown) [Example 225, 4-{4-[2-chloro-4-(3-morpholin-4-ylpropoxy)phenyl]-2-oxopyridin-1(2H)-yl}-N-hydroxy-2-methyl-2-(methylsulfonyl)butanamide] | 8 µg/mL | 16 µg/mL
CC(CCn1ccc(-c2ccc(OCCCN3CCOCC3)cc2F)cc1=O)(C(=O)NO)S(C)(=O)=O (stereo not shown) [Example 226, 4-{4-[2-fluoro-4-(3-morpholin-4-ylpropoxy)phenyl]-2-oxopyridin-1(2H)-yl}-N-hydroxy-2-methyl-2-(methylsulfonyl)butanamide] | 2 µg/mL | 8 µg/mL
